Experiments:
GRANTA-519 = experiment: Tumor cell proliferation, GRANTA-519 (Cell Titer Glo); format: cell-based; settings: Homo sapiens, 96 h; GRANTA-519, Lymphoma, mantle cell; 4 days; read-out: in vitro (IC50, nM), inhibition of tumor cell proliferation
Protocol: (§1) Non-adherent growing GRANTA-519, Jeko-1, JVM-2, NCI-H929, Rec-1 and SU-DHL-8 cells were seeded in 150 μl of growth medium at 4000 cells/well (NCI-H929, 5000 cells/well) in 96-well microtiter plates and incubated for 24 h at 37° C. […] All measurements were done in quadruplicates.

M059J = experiment: Tumor cell proliferation, M059J (crystal violet); format: cell-based; settings: Homo sapiens, 96 h, Glioblastoma, 4 days, read-out: in vitro (IC50, nM), inhibition of tumor cell proliferation
Text: (§2) All measurements were done in quadruplicates.

DLD-1 BRCA2 (−/−) = experiment: Isogenic tumor cell line proliferation, DLD-1 BRCA2 (−/−); format: cell-based; settings: Homo sapiens, 168 h, BRCA2 deficiency, 7 days, CTG, read-out: in vitro (IC50, nM), inhibition of isogenic tumor cell line proliferation
Protocol: (§3) The isogenic DLD-1 cell lines DLD-1 parental, DLD-1 BRCA2 (−/−) and DLD-1 ATM (−/−) (see Table 3: Test systems) were seeded in RPMI 1640 (RPMI=Roswell Park Memorial Institute) medium without phenol red+10% charcoal-stripped FCS (FCS=Fetal Calf Serum)+2 mM L-Glutamine+25 mM Sodium Bicarbonate at 2,500 cells/well in a 96-well microtiter plate. […] All measurements were done in quadruplicates.

[1] = tested on: VCaP human prostate cancer cells; experiment: Proliferation of VCaP cells (Alamar Blue); format: cell-based; settings: 168 h, day 7, read-out: in vitro (IC50, nM), inhibition of tumor cell proliferation
Protocol: VCaP human prostate cancer cells were obtained from the VTT Technical Research Center (Finland). They were plated in DMEM medium (DMEM=Dulbecco's Modified Eagle Medium) with stable glutamine+10% FCS at 16000 cells/well in a 96-well microtiter plate. […] Cell number was determined by Alamar Blue staining (2 h) at day 0 and day 7. Fluorescence was determined in a Victor X3 device (excitation 530 nm; emission 590 nm). The inhibition of cell growth was calculated by normalization with respect to the fluorescence reading (cell number) measured at the end of the experiment for cells treated with R1881 alone compared to the fluorescence reading (cell number) measured at the start of the experiment for DMSO-treated cells.

NCI-H23 = experiment: Tumor cell proliferation, NCI-H23 (crystal violet); format: cell-based; settings: Homo sapiens, 96 h; NCI-H23, Lung; 4 days; read-out: in vitro (IC50, nM), inhibition of tumor cell proliferation
Text: as §2

DLD-1 parental = experiment: Isogenic tumor cell line proliferation, DLD-1 parental; format: cell-based; settings: Homo sapiens, 168 h, Colorectal, 7 days, CTG, read-out: in vitro (IC50, nM), inhibition of isogenic tumor cell line proliferation
Protocol: as §3

JVM-2 = experiment: Tumor cell proliferation, JVM-2 (Cell Titer Glo); format: cell-based; settings: Homo sapiens, 96 h; JVM-2, Lymphoma, mantle cell; 4 days; read-out: in vitro (IC50, nM), inhibition of tumor cell proliferation
Protocol: as §1

[2] = tested on: A2780 xenograft (ovarian); settings: mouse, in vivo, po, 50 mg/kg
Protocol: (§4) For this purpose, mice were implanted subcutaneously with tumor cells. […] The oral application volume was 10 ml/kg. The time interval between two applications per day was 6-7 h. […] The tumor size and the body weight were determined three times weekly. Changes in the body weight were a measure of treatment-related toxicity (>10%=critical, stop of treatment until recovery, >20%=toxic, termination). The tumor area was detected by means of an electronic caliper gauge [length (mm)×width (mm)]. In vivo anti-tumor efficacy is presented as T/C ratio (Treatment/Control) calculated with tumor areas at study end by the formula [(tumor area of treatment group at day x)−(tumor area of treatment group at day before first treatment)]/[(tumor area of control group at day x)−(tumor area of control group at day before first treatment)]. […] Statistical analysis was assessed using SigmaStat software. A one-way analysis of variance was performed and differences to the control were compared by a pair-wise comparison procedure (Dunn's method).

[3] = tested on: LOVO xenograft (colorectal cancer); settings: mouse, in vivo, po, 50 mg/kg
Protocol: as §4

PC3 xenograft (prostate) = settings: mouse, in vivo, po, 50 mg/kg
Protocol: as §4

[4] = tested on: REC-1 xenograft (mantle cell lymphoma); settings: mouse, in vivo, po, 50 mg/kg
Protocol: as §4

A549 = experiment: Tumor cell proliferation, A549 (crystal violet); format: cell-based; settings: Homo sapiens, 96 h; A549, Lung; 4 days; read-out: in vitro (IC50, nM), inhibition of tumor cell proliferation
Text: as §2

SK-OV-3 = experiment: Tumor cell proliferation, SK-OV-3 (crystal violet); format: cell-based; settings: Homo sapiens, 96 h; SK-OV-3, Ovarian; 4 days; read-out: in vitro (IC50, nM), inhibition of tumor cell proliferation
Text: as §2

[5] = tested on: PC-3 human prostate cancer cells; experiment: Proliferation of PC-3 cells (crystal violet); format: cell-based; settings: PC-3, 96 h, PC3, Prostate, 4 days, read-out: in vitro (IC50, nM), inhibition of tumor cell proliferation
Protocol: (§5) PC-3 human prostate cancer cells were obtained from the DSMZ-German Collection of Microorganisms and Cell Cultures (Germany) (DSMZ ACC-465). They were plated in DMEM/Ham's F12 medium with stable Glutamine+10% FCS at 5000 cells/well in a 96-well microtiter plate. After 24 h, the cells from one microtiter plate were stained with crystal violet (==>0 plate), whereas the cells in the test plates were exposed continuously for 4 days to test substances. Cell proliferation was determined by staining with crystal violet. The absorbance was determined photometrically at 595 nm using a Tecan Sunrise instrument.

[6] = tested on: LAPC-4 human prostate cancer cells; experiment: Proliferation of LAPC-4 cells (Alamar Blue); format: cell-based; settings: 168 h, LapC4, Prostate, R1881 1 nM, day 7, read-out: in vitro (IC50, nM), inhibition of tumor cell proliferation
Protocol: LAPC-4 human prostate cancer cells were obtained from the VTT Technical Resarch Center (Finland). They were plated in RPMI 1640 (RPMI=Roswell Park Memorial Institute) medium without phenol red+10% charcoal-stripped FCS (FCS=Fetal Calf Serum)+2 mM L-Glutamine at 4000 cells/well in a 96-well microtiter plate. […] Cell number was determined by Alamar Blue staining (2 h) at day 7. Fluorescence was determined in a Victor X3 device (excitation 530 nm; emission 590 nm). The inhibition of cell growth was calculated by normalization with respect to the fluorescence reading (cell number) measured at the end of the experiment for cells treated with R1881 alone compared to the fluorescence reading (cell number) measured at the end of the experiment for DMSO-treated cells.

MIAPaCa2 = experiment: Tumor cell proliferation, MIAPaCa2 (crystal violet); format: cell-based; settings: Homo sapiens, MIA PaCa-2, 96 h; MIAPaCa2, Pancreas; 4 days; read-out: in vitro (IC50, nM), inhibition of tumor cell proliferation
Text: as §2

U-87MG = experiment: Tumor cell proliferation, U-87MG (crystal violet); format: cell-based; settings: Homo sapiens, 96 h, Glioblastoma, 4 days, read-out: in vitro (IC50, nM), inhibition of tumor cell proliferation
Text: as §2

Jeko-1 = experiment: Tumor cell proliferation, Jeko-1 (Cell Titer Glo); format: cell-based; settings: Homo sapiens, 96 h; Jeko-1, Lymphoma, mantle cell; 4 days; read-out: in vitro (IC50, nM), inhibition of tumor cell proliferation
Protocol: as §1

HT29 = experiment: Tumor cell proliferation, HT29 (crystal violet); format: cell-based; settings: Homo sapiens, HT-29, 96 h; HT29, Colorectal; 4 days; read-out: in vitro (IC50, nM), inhibition of tumor cell proliferation
Text: as §2

[7] = tested on: LNCaP human prostate cancer cells; experiment: Proliferation of LNCaP cells (CellTiter-Glow); format: cell-based; settings: 144 h, R1881 1 nM, day 6, read-out: in vitro (IC50, nM), inhibition of tumor cell proliferation
Protocol: They were plated in RPMI1640 medium without phenol red+10% charcoal-stripped FCS at 600 cells/well in a 384-well white plate. […] Cell number was determined by CellTiter-Glow (Promega) at day 0 and day 6. Luminescence was determined in Victor X3. The inhibition of cell growth was calculated by normalization with respect to the fluorescence reading (cell number) measured at the end of the experiment for cells treated with R1881 alone compared to the fluorescence reading (cell number) measured at the start of the experiment for DMSO-treated cells.

NCI-H2030 = experiment: Tumor cell proliferation, NCI-H2030 (crystal violet); format: cell-based; settings: Homo sapiens, 96 h; NCI-H2030, Lung; 4 days; read-out: in vitro (IC50, nM), inhibition of tumor cell proliferation
Text: as §2

BxPC3 = experiment: Tumor cell proliferation, BxPC3 (crystal violet); format: cell-based; settings: Homo sapiens, BXPC-3, 96 h; BxPC3, Pancreas; 4 days; read-out: in vitro (IC50, nM), inhibition of tumor cell proliferation
Text: as §2

HCC70 = experiment: Tumor cell proliferation, HCC70 (crystal violet); format: cell-based; settings: Homo sapiens, 96 h; HCC70, Breast; 4 days; read-out: in vitro (IC50, nM), inhibition of tumor cell proliferation
Text: as §2

AsPc-1 = experiment: Tumor cell proliferation, AsPc-1 (crystal violet); format: cell-based; settings: Homo sapiens, ASPC1, 96 h; AsPc-1, Pancreas; 4 days; read-out: in vitro (IC50, nM), inhibition of tumor cell proliferation
Text: as §2

TMD-8 = experiment: Tumor cell proliferation, TMD-8; format: cell-based; settings: Homo sapiens, TMD8, 96 h; TMD-8, Lymphoma, B cell; 4 days; read-out: in vitro (IC50, nM), inhibition of tumor cell proliferation
Text: as §2

HT-144 = experiment: Tumor cell proliferation, HT-144 (crystal violet); format: cell-based; settings: Homo sapiens, 96 h; HT-144, Melanoma; 4 days; read-out: in vitro (IC50, nM), inhibition of tumor cell proliferation
Text: as §2

C4-2B = experiment: Tumor cell proliferation, C4-2B (crystal violet); format: cell-based; settings: Homo sapiens, 96 h, Prostate, 4 days, read-out: in vitro (IC50, nM), inhibition of tumor cell proliferation
Text: as §2

[8] = tested on: 22RV1 human prostate cancer cells; experiment: Proliferation of 22Rv1 cells (crystal violet); format: cell-based; settings: 96 h, 22Rv1, Prostate, 4 days, read-out: in vitro (IC50, nM), inhibition of tumor cell proliferation
Protocol: as §5, with “22RV1” for “PC-3”, “American Type Culture” for “DSMZ-German”, “(ATCC CRL-2505).” for “of Microorganisms and Cell Cultures (Germany) (DSMZ ACC-465).”, “RPMI1640” for “DMEM/Ham's F12”, “medium supplemented” for “medium”, “10%” for “stable Glutamine+10%”

REC-1 = experiment: Tumor cell proliferation, REC-1 (Cell Titer Glo); format: cell-based; settings: Homo sapiens, Rec1, 96 h; REC-1, Lymphoma, mantle cell; 4 days; read-out: in vitro (IC50, nM), inhibition of tumor cell proliferation
Protocol: as §1

SU-DHL-8 = experiment: Tumor cell proliferation, SU-DHL-8 (Cell Titer Glo); format: cell-based; settings: Homo sapiens, 96 h; SU-DHL-8, Lymphoma, B cell; 4 days; read-out: in vitro (IC50, nM), inhibition of tumor cell proliferation
Protocol: as §1

C[C@@H]1COCCN1c1cc(-c2ccnn2C)c2ccnc(-c3ccn[nH]3)c2n1 [Compound A, 2-[(3R)-3-methylmorpholin-4-yl]-4-(1-methyl-1H-pyrazol-5-yl)-8-(1H-pyrazol-5-yl)-1,7-naphthyridine]
IC50 (GRANTA-519): 30 nM
IC50 (M059J): 80 nM
IC50 (DLD-1 BRCA2 (−/−)): 27 nM
IC50 [1]: 51 nM
IC50 (NCI-H23): 18 nM
IC50 (DLD-1 parental): 50 nM
IC50 (JVM-2): 32 nM
Max. weight loss (%) [2]: −6%
Max. weight loss (%) [3]: −8%
Max. weight loss (%) (PC3 xenograft (prostate)): −7%
Max. weight loss (%) [4]: −10%
IC50 (A549): 29 nM
IC50 (SK-OV-3): 33 nM
IC50 [5]: 490 nM
IC50 [6]: 55 nM
IC50 (MIAPaCa2): 380 nM
IC50 (U-87MG): 64 nM
IC50 (Jeko-1): 18 nM
IC50 (HT29): 160 nM
IC50 [7]: 18 nM
IC50 (NCI-H2030): 160 nM
IC50 (BxPC3): 44 nM
IC50 (HCC70): 27 nM
IC50 (AsPc-1): 49 nM
IC50 (TMD-8): 179 nM
IC50 (HT-144): 40 nM
IC50 (C4-2B): 50 nM
IC50 [8]: 36 nM
IC50 (REC-1): 10 nM
IC50 (SU-DHL-8): 9 nM
